Values quoted from earlier work, collected in patent US12364689B2, “Dosage regimen for the treatment of cancer” (AstraZeneca AB, priority 2020, dated 2025).

Assays:
[1] = biological target: T1, ERα receptor (Homo sapiens, UniProt P03372); details: in vitro breast cell line experiments; cited from earlier work
T1 sequence (P03372 1-595): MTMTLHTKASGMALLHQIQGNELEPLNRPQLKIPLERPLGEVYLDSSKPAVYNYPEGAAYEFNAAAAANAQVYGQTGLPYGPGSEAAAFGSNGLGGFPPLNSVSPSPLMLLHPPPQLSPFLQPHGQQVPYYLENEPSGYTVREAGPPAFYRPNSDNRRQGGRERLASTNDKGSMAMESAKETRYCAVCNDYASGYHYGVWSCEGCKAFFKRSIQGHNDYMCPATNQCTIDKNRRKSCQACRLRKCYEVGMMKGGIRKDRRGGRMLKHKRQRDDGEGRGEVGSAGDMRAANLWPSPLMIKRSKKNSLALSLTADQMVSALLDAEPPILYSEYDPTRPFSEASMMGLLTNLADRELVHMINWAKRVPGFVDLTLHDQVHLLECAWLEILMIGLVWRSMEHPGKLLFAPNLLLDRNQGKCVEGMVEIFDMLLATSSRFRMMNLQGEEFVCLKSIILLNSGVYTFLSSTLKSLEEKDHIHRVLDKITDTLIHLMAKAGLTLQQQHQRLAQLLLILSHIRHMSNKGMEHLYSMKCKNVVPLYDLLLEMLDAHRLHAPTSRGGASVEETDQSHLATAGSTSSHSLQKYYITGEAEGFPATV

[2] = biological target: T1, ERα receptor; details: 500 mg monthly dose; cited from earlier work

C[C@]12CC[C@@H]3c4ccc(O)cc4C[C@@H](CCCCCCCCC[S+]([O-])CCCC(F)(F)C(F)(F)F)[C@H]3[C@@H]1CC[C@@H]2O (some centres unmarked) [Fulvestrant, fulvestrant]
down-regulation of the receptor [1]: complete down-regulation | turnover of the receptor in patient samples [2]: less than 50%
